The test system of experiment [1] is HEK293 cells overexpressing WT or A53T a-syn. As to the kind of experiment: Cell Titer-Glo cell viability assay in a-syn expressing cells. It is filed as cell-based, human. To be noted: HEK293 cells overexpressing WT or A53T a-syn, with or without MG132; expressed GFP-peptide or protein. Here is the method:
Oligonucleotides encoding the specific peptides were synthesized and individually cloned into the pLJM1 nGFP lentiviral vector. Cells were infected with individual constructs, and cell viability was assessed using Cell Titer-Glo Luminescent assay (Promega) at 72 h post infection.
Cells were trypsinized from subconfluent cultures as described earlier, suspended in culture media, and then seeded into triplicate wells of a 96-well plate (100 μl well/1) at a density of 1.5×10^4 cells per well at standard culture conditions of 5% CO2 in air at 37° C. Cells were infected with lentivirus expressing peptide at an MOI of 5 for 72 h or transfected with plasmid for 72 h. Cell Titer-Glo reagent was added to each well (30 μL), according to the manufacturer's protocol and […].
For orientation: Cellular ATP, detected with luciferase, serves as a proxy for viable cell number.

The subject of another experiment is A53T a-syn. As to the kind of experiment: a-syn protein levels by immunoblot in HEK293 cells. As to conditions: HEK293 cells expressing A53T a-syn. It is filed as cell-based, human. Here is the method: Infected or transfected cells were scraped from 6-well dishes and lysed with lysis buffer (50 mM Tris-HCl pH7.4, 1% Nonidet P-40, 150 mM NaCl, 1 mM EDTA, 1× protease inhibitor mixture (Sigma)) for 30 min at 4° C. The insoluble pellet was removed following a 10,000 rpm spin for 5 minutes at 4° C. Lysates were analyzed by SDS-PAGE/immunoblot using 4-20% Mini-PROTEAN Tris-glycine gels (Bio-Rad) transferred to PVDF membranes and blocked in 5% milk containing PBS-Tween-20 (0.1%) for 1 h. PVDF membranes were then incubated with specified primary antibodies followed by incubation with horseradish peroxidase-conjugated secondary antibodies (Santa Cruz Biotechnology) and detected using enhanced chemiluminescence (GE Healthcare).
(In western blotting, separated proteins are transferred to a membrane and probed.)

For another experiment, the target named is VPS4. As to conditions: motif-domain interaction, reference (20); read-out: affinity of CHMP2B-VPS4 interaction; cited from earlier work.

Entries after “also recorded” stand apart in the source; their conditions may differ.

Regarding “full-length CHMP2B: Charged Multivesicular Body Protein 2B, member of ESCRT-III, uniprot ID Q9UQN3”, in experiment [1], the “cell viability / cytoprotective effect” value is “rescues a-syn cytotoxicity”. Besides, in the experiment on A53T a-syn, the “a-syn protein levels by immunoblot” value was “reduced a-syn protein levels; also recorded: reduces a-syn levels”. The Kd on VPS4 is 178 µM.
